# Calls of active or inactive are those of the source.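 How the source made its calls: active means mean IC50 for reducing PEG3 promoter reporter signal at or below a set limit, with IC50 above the limit in both counter screens; inactive means the rest, including counter screen hits.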
# Key:
# PEG-3 [1] = target: PEG-3 (UniProt Q6IN02); test: inhibition of PEG-3 promoter-driven reporter – cell-based, HeLa, luciferase, CREF/GAPDH counter-screen panel, dose response (AID 624167); conditions: HeLa PEG-Prom luciferase reporter, overnight, CREF/GAPDH counter-screens, mean of runs
# PEG-3 [2] = test: as above; conditions: HeLa PEG-Prom luciferase reporter, overnight, CREF/GAPDH counter-screens
# [3] = run 1, dose range 1, individual replicate IC50 per panel
# [4] = run 2, dose range 1, individual replicate IC50 per panel
# Chain of PEG-3 (UniProt Q6IN02) (Q6IN02 whole entry, looked up): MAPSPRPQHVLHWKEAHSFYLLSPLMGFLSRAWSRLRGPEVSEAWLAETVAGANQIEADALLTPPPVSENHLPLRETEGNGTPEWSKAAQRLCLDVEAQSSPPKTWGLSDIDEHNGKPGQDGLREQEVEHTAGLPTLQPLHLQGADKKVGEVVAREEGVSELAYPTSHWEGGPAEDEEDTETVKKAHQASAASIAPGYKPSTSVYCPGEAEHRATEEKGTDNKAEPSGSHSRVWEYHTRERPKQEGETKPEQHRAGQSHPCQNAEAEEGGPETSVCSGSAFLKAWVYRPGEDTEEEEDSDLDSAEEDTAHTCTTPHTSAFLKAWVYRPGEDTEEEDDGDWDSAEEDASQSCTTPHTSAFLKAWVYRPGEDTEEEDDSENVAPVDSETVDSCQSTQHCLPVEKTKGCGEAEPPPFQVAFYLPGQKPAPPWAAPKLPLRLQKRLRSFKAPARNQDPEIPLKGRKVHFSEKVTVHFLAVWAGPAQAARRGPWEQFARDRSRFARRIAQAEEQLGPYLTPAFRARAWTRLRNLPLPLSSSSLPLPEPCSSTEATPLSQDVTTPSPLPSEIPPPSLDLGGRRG
SMILES,IC50 (PEG-3 [1]),IC50 (PEG-3 [2]; [3]) [µM],IC50 (PEG-3 [2]; [4]) [µM]
COc1ccc(C(O)(CCC(C)C)C(CN2CCOCC2)c2ccccc2)cc1 (stereo unspecified),inactive,30.5,30.2
Cc1ccc(Cn2c(=N)n(CC(=O)c3ccccc3)c3ccccc32)cc1,16.5 µM,15.4,17.6
COc1cc2ccccc2cc1C(=O)N(CCN(C)C)c1nc2c(OC)ccc(OC)c2s1,inactive,30.7,21.2
CNCC[C@@H](Oc1ccc(C(F)(F)F)cc1)c1ccccc1,inactive,27,53.2
COc1ccc(NS(=O)(=O)c2ccc3ccccc3c2)c2ncccc12,17.6 µM,13.5,21.6
CCOC(=O)c1c(C)[nH]c(C(=O)OCC(=O)Nc2sccc2C(N)=O)c1C,inactive,31.1,68.7
COc1ccc(-n2ncc3c(N(C)C4CCCCC4)ncnc32)cc1,inactive,26.5,44
CC(=O)Nc1cccc(-c2cc(NC=O)c3ncc(-c4ccc(C(C)=O)cc4)n3c2)c1,inactive,6,> 100
Cc1ccc(S(=O)(=O)N2CCCCC2)cc1C(=O)N(C)CC(=O)Nc1ccc(Cl)c(C(F)(F)F)c1,inactive,45.1,42.7
CN(C)C=NC(=O)c1[nH]c2ccc(Cl)cc2c1-c1ccccc1,18.9 µM,18,19.9
COc1ccc2sc3cccc(NCCN(C)C)c3c(=O)c2c1,inactive,21.6,> 100
COc1ccc(CCn2c(=N)c(C(=O)NC3CCCC3)cc3c(=O)n4cccc(C)c4nc32)cc1,inactive,15.8,42.7
Cc1ccc2nc(N(CCCN(C)C)C(=O)c3ccc4c(c3)CCCC4)sc2c1,19.8 µM,22,17.6
CCCC(=O)N1CCCC(c2cc(C(=O)Nc3ccccc3)no2)C1 (stereo unspecified),11.5 µM,8.68,14.3
CCOc1ccc2nc(N(CCCN(C)C)C(=O)c3ccc(C(=O)c4ccccc4)cc3)sc2c1,13.9 µM,20.3,7.58
CN(Cc1ccccc1)C(=O)c1ccc(Nc2nc(C(N)Cc3ccccc3)cs2)nc1 (stereo unspecified),18.3 µM,21.8,14.8
CCN1CCN(Cc2ccc(NC(=O)c3cc(NC(=O)c4ccno4)cc(OC)c3)cc2C(F)(F)F)CC1,inactive,40.6,45.3

# Second part, led by results:
IC50 (PEG-3 [1]),SMILES,IC50 (PEG-3 [2]; [3]) [µM],IC50 (PEG-3 [2]; [4]) [µM]
inactive,CCCCN(C)C(=O)c1ccc(Nc2nc(C(N)CCc3ccccc3)cs2)nc1 (stereo unspecified),27.6,15.4
11.7 µM,O=Nc1c(O)ccc2cc(S(=O)(=O)O)ccc12,9.17,14.2
inactive,Cc1cccc(-n2ncc3c(N(C)C4CCCCC4)ncnc32)c1,22.6,26.7
12.9 µM,NCCc1c(-c2ccccc2)n(-c2ccccc2)c2ccccc12,17.4,8.4
11.1 µM,COc1cccc(C(=O)O/N=C(\N)c2ccccn2)c1,15.2,7.08
15.1 µM,CN(CCOc1ccc(Cl)cc1)C(=O)c1cc(-c2ccco2)nc2ccccc12,15.9,14.4
inactive,CC(=O)Nc1ccc(Nc2nc(C)c([N+](=O)[O-])c(Nc3ccccc3)n2)cc1,22.6,> 100
18.8 µM,COc1cccc(-c2cnc3c(NC=O)cc(-c4cccc(C(=O)N(C)C)c4)cn23)c1,19.9,17.7
inactive,COc1cc(NC(=O)Nc2nc(C(N)CCc3ccccc3)cs2)cc(OC)c1OC (stereo unspecified),21.3,40.6
inactive,CC(=O)c1ccc(Nc2nc(C(N)Cc3ccc(Cl)cc3)cs2)cc1 (stereo unspecified),25.7,15.1

# Reference: PubChem BioAssay AID624167 (Sanford-Burnham Center for Chemical Genomics, 2012)
